SMILES strings stand for the structures.

The source of these data is patent publication US8828678B2, “Self-immolative probes for enzyme activity detection” (Enzo Life Sciences, Inc., priority 2010, dated 2014).

Test [1] relates to bacterial nitroreductases. Conditions: cited from earlier work.
For test [2], the system named is mammalian single-electron reductases. The note with it: cited from earlier work.
For test [3], the system named is Jurkat cells. In words: Detection of hypoxia using flow cytometry. Type of test: cell-based, human. The note with it: 5 μM CD-1, 1 μM CD-6, versus vehicle-treated loaded cells. As for the experimental part:
HeLa and U-2 OS cells were cultured as described in Example 7. Human Jurkat T-cell leukemia cells (the A3 subclone) was obtained from ATCC and routinely cultured in RPMI-1640 medium (ATCC) supplemented with 10% fetal bovine serum (ATCC) and 100 U/ml penicillin+100 μg/ml streptomycin (Sigma-Aldrich). Cell cultures were maintained in an incubator at 37° C., with 5% CO2 atmosphere. CD-1, CD-4 and CD-6 self-immolative hypoxia probes were prepared as described in Example 8. All hypoxia inducers stocks were prepared as described in Example 7.
The day before the experiment, HeLa and U-2 OS cells were seeded in 6-well tissue culture plates at a density 5×10^5 cells/well. […] Post-treatment, the adherent cells (HeLa and U-2 OS) were collected by trypsinization, re-suspended in 0.5 mL of fresh PBS and analyzed using flow cytometry. Jurkat cells were analyzed without washing.
Flow cytometry experiments were performed using a FACS Calibur benchtop flow cytometer (BD Biosciences) equipped with a blue (488 nm) laser, and the fluorescence was recorded in the FITC (530/30 filter), PE (585/42 filter) and PerCP (670 LP filter) channels. Hypoxic cells were detected by detecting increases in fluorescence. The degree of hypoxia (Khyp) can be quantified by using Kolmogorov-Smirnov statistics (Young, 1977) or the following formula: Khyp=(MFIhyp−MFIcon)/MFIhyp, […]
(In general: A flow cytometer gives signals particle by particle.)

Test [4] has as its system Jurkat cells. In words: Combined detection of hypoxia and superoxide in live cells by flow cytometry. The format is cell-based, human. As for the experimental part: HeLa, U-2 OS, and Jurkat cell lines were cultured as described in Examples 7 and 9. Stock solutions of the probes and inhibitors were prepared as described in Examples 7 and 10.
The day before the experiment, HeLa and U-2 OS cells were seeded in 6-well tissue culture plates at a density of 5×10^5 cells/well. Jurkat cells were collected in logarithmic phase of growth and aliquoted at a density of 5×10^5 cells/sample. On the day of the experiment, the cells were preloaded with either hypoxia or ROS-detecting probes only or with the combination of hypoxia and ROS-detecting probes with compatible spectral characteristics. Samples stained with single hypoxia probes or with two ROS-detecting probes were made to validate data obtained with the combination of hypoxia and redox probes. The probes used in the experiment and their final concentrations in cell culture medium were as follows: CD-1(5 μM) and CD-6 (1 μM), DCFDA, peroxide/peroxynitrite/hydroxyl detection probe and HE, specific superoxide detection reagent (1 μM for both redox probes). Hypoxia was induced in the cells as described in Example 7. Additionally, cells were treated with different general and specific ROS inducers and stained with ROS-detecting probes to control ROS production and staining. Post-treatment, the adherent cells (HeLa and U-2 OS) were collected by trypsinization, re-suspended in 0.5 mL of fresh PBS and analyzed using flow cytometry. Jurkat cells were analyzed without washing. Flow cytometry experiments were performed using an FACS Calibur benchtop flow cytometer (BD Biosciences) equipped with a blue (488 nm) laser, and the fluorescence was recorded in the FITC (530/30 filter), PE (585/42 filter) and PerCP (670 LP filter) channels. Data were collected uncompensated, also compensation corrections were performed using unstained cells, and cells stained with each single dye separately (CD-1, CD-6, DCFDA or HE). To quantify data, quadrant gates were set using untreated samples.

The nature of test [5]: Chemical assay: reduction of probe by sodium hydrosulfite, fluorescence. Conditions: PBS pH 7.4, room temperature, over a 60 minute period. Here is the method: A solution of probe CD-6 in DMSO (0.1-1.0 μl) was added to 90 μl of PBS buffer (10 mM, pH 7.4). After mixing, 10 μl of 100 mM aqueous sodium hydrosulfite was added. The reaction mixture was incubated at room temperature for amount of time ranging from 1 minute to 6 hours. As a control, 10 μl of water instead of sodium hydrosulfite was used.

A further test concerns HeLa cells. In words: Combined detection of hypoxia and redox status in live cells by fluorescent microscopy. The format is cell-based, human. Conditions: for superoxide production (superoxide detection reagent staining) in treated HeLa cells: 0.2 mM CoCl2, 0.2 mM DFO or 1 mM DMOG, 3.5 h. As for the experimental part:
HeLa and U-2 OS cells were cultured as described in Example 7. Stock solutions of CD-1 and CD-5 and various hypoxia inducers were prepared and stored as described in Examples 7 and 8. Additionally, 5 mM stock solutions (5000×) of 2′,7′-dichloro-fluorescein diacetate (DCFDA, an indicator of global ROS generation) and dihydroethidium (DHE, specific indicator of superoxide generation) were made in anhydrous DMF. DMSO was avoided, since this solvent is a hydroxyl radical scavenger and its presence may affect ROS/RNS production in cellular systems. The following stocks of ROS inducers were prepared in DMF: 10 mM pyocyanin (general ROS generating compound, 100×), 20 mM antimycin A (general ROS inducer, 400×), 50 mM pyrogallol (a superoxide radical generator, 1000×), 1 mM t-butyl hydroperoxide (TBHP, peroxide radical inducer, 10,000×). ROS probes and inducers were aliquoted and stored at −80° C.
The day before the experiment, the cells were seeded on 4-well microscope slides (Cel-Line™ Brand, Portsmouth, N.H.) at a density 1×10^4 cells/well (2×10^4 cells/cm^2). On the day of the experiment, the cells were preloaded with both hypoxia probe (5 μM final concentration in cell culture medium) and ROS detecting reagent with suitable spectral characteristics. Two ROS-detecting probes, DCFDA and DHE, were used in a pilot experiment in conjunction with hypoxia self-immolative probes. The hydrolyzed product of DCFDA, DCFH, is considered to be a general indicator of ROS, reacting with H2O2 (in the presence of peroxidases), ONOO^−, lipid hydroperoxides, and hydroxyl radicals. The oxidized product can be detected by strong fluorescence emission at around 525 nm when excited at around 488 nm. Because H2O2 is a secondary product of O2.^−, DCFH fluorescence has been used to implicate O2.^− production. The direct reaction of DHE with O2.^− yields a very specific fluorescent product, requiring no conversion to H2O2. The product of the DHE reaction with O2.^− fluoresces strongly at around 600 nm when excited at 500-530 nm.
Tested pairs of the probes were as follows: CD-5 with DCFDA or DHE, and CD-1 with DHE. A hypoxic state was induced in the cells as described in Example 7. Control slides were singly-stained with hypoxia or ROS-detecting probes only. Additional slides were treated with different general and specific ROS inducers and stained with ROS-detecting probes to control ROS staining. Post-treatment, the slides were washed twice with PBS, coverslipped and visualized using an Olympus BX-51 fluorescence microscope and a DAPI filter set (350 ex/470em) for CD-5, an FITC filter set (490ex/525em) for CD-1 or for total ROS detection reagent, and an orange filter set (550ex/620em) for HE.

In a further test the test system is hypoxic HeLa cells. In words: Detection of hypoxia with hypoxia markers using fluorescence microscopy. The format is cell-based, human. Conditions: 5 μM, 3.5 h, chemical induction of hypoxia (CoCl2, DFO, DMOG) or anoxic treatment, FITC filter. As for the experimental part: The human cervical adenocarcinoma epithelial cell line HeLa, U-2 OS human bone osteosarcoma cell line and hamster ovary CHO K1 cell line were obtained from ATTC. HeLa cells were routinely cultured in Eagle's Minimum Essential Medium with low glucose (ATCC), supplemented with 10% fetal bovine serum (ATCC) and 100 U/ml penicillin, 100 μg/ml streptomycin (Sigma-Aldrich, St. Louis, Mo.). U-2 OS cells were routinely cultured in McCoy's 5a Modified Medium (ATCC), supplemented with 10% fetal bovine serum heat (ATCC) and 100 U/ml penicillin+100 μg/ml streptomycin (Sigma-Aldrich). […]
The day before the experiment, the cells were seeded on 4-well microscope slides (Cel-Line™ Brand, Portsmouth, N.H.) at a density 1×10^4 cells/well (2×10^4 cells/cm^2). […] Post-treatment, the slides were washed twice with PBS, coverslipped and visualized using an Olympus BX-51 fluorescence microscope (FITC filter set, 490ex/525em).
In parallel, the hypoxia cellular state was detected using the hypoxia detecting reagent pimonidazole (Varia et al., 1998; Young, 1977). […] Slides were stained with a 1:100 dilution of FITC-MAb1 against pimonidazole (HP-1 kit from Hypoxyprobe) for 45 min at 4° C., washed twice with PBS, coverslipped and visualized using an Olympus BX-51 fluorescence microscope equipped with an FITC filter set (490ex/525em). […]

`O=c1c(Cl)c2oc3cc([N+](=O)[O-])ccc3nc-2c2ccccc12` [CNOB, 6-Chloro-9-nitro-5-oxo-5H-benzo[a]phenoxazine]: the “substrate for bacterial nitroreductases” value in test [1] was “good substrate”. Moreover, the “substrate for mammalian nitroreductases” value in test [2] is on record as “apparently not a substrate”. As for `O=C(Nc1ccc2c(c1)Oc1c(cc3c4c1CCCN4CCC3)C21OC(=O)c2ccccc21)OCc1ccc([N+](=O)[O-])cc1` (centres unmarked) [CD-6], in the test on Jurkat cells [3], the “fluorescence in Jurkat cells treated with chemical hypoxia inducers or subjected to anoxia” value was “fluorescence increase”. Also, the “detection of hypoxic cell populations” value in the test with Jurkat cells [4] (CD-6 1 μM with DCFDA or HE dyes or alone, flow cytometry) is “able to detect hypoxic cell populations”. Further, the “fluorescence after combining with sodium hydrosulfite” value in test [5] was “increasing fluorescence”. `[Cl][Co][Cl]` [CoCl2, cobalt chloride]: in the test on Jurkat cells [4] (Jurkat cells, compared to the untreated cells), the “superoxide production: population of orange positive cells” value was “about 20%”. The “superoxide production (superoxide detection reagent staining) in treated HeLa cells” value (from here on “superoxide production … in treated HeLa cells”) in the test with HeLa cells is “only moderate staining”.

Consider `CC(=O)N(O)CCCCCNC(=O)CCC(=O)N(O)CCCCCNC(=O)CCC(=O)N(O)CCCCCN` [DFO, desferrioxamine], for which the “superoxide production … in treated HeLa cells” value in the test on HeLa cells is given as “Abundant superoxide production”.

For the molecule `O=C(Nc1ccc2c(C(F)(F)F)cc(=O)oc2c1)OCc1ccc([N+](=O)[O-])cc1` [CD-5], the “hypoxia probe fluorescent signal in hypoxic HeLa cells, multiplexed with ROS dyes” value in the test on HeLa cells (5 μM, all four hypoxic samples (anoxia, CoCl2, DFO, DMOG)) was “bright fluorescent signal”. Consider `COC(=O)CNC(=O)C(=O)OC` [DMOG, dimethyloxalylglycine, N-[Methoxyoxoacetyl]glycine methyl ester], for which, in the test with HeLa cells, the “superoxide production … in treated HeLa cells” value was “Abundant superoxide production”. Moreover, the “peroxides/peroxynitrite formation in treated HeLa cells” value with HeLa cells (DCFDA staining) is listed as “detected in DMOG-treated cells only”. As to `O=C(Nc1ccc2c(c1)Oc1cc(NC(=O)N3CCOCC3)ccc1C21OC(=O)c2ccccc21)OCc1ccccc1` (centres unmarked) [CD-3], the “fluorescence signal in hypoxic HeLa cells” value in the test on hypoxic HeLa cells is “did not yield any fluorescent signal”. As for `Cn1c2cccc(=O)c-2nc2ccccc21` [Pyocyanin, pyocyanin], the “hypoxia state: positive green cells” value in the test on Jurkat cells [4] (Jurkat cells stained with CD-1, pyocyanin-treated) is reported as “about 10%”. Further, the “superoxide production in treated Jurkat cells” value in the test with Jurkat cells [4] (positive control for ROS production) is recorded as “high superoxide production”.
